For 3 molecules, residual activity results are on record in ChEMBL document CHEMBL1152560, “Substituted 2-arylbenzothiazoles as kinase inhibitors: hit-to-lead optimization” (Bioorg Med Chem, 2009).

For assay [1], the target named is Serine/threonine-protein kinase PAK 6 (Homo sapiens) (UniProt Q9NQU5). Description: Residual activity of PAK6 at 1 uM by microplate scintillation counting.
Assay [2] addresses Protein-tyrosine kinase 6 (Homo sapiens) (UniProt Q13882). The assay is described as follows: Residual activity of BRK at 1 uM by microplate scintillation counting.
Assay [3] concerns the target Leukocyte tyrosine kinase receptor (Homo sapiens) (UniProt P29376). Description: Residual activity of LTK at 1 uM by microplate scintillation counting.
The target of assay [4] is Serine/threonine-protein kinase Chk2 (Homo sapiens) (UniProt O96017). The assay is described as follows: Residual activity of CHK2 at 1 uM by microplate scintillation counting.
In assay [5] the target is T1, Serine/threonine-protein kinase Sgk1 (Homo sapiens) (UniProt O00141).
T1 sequence (whole entry): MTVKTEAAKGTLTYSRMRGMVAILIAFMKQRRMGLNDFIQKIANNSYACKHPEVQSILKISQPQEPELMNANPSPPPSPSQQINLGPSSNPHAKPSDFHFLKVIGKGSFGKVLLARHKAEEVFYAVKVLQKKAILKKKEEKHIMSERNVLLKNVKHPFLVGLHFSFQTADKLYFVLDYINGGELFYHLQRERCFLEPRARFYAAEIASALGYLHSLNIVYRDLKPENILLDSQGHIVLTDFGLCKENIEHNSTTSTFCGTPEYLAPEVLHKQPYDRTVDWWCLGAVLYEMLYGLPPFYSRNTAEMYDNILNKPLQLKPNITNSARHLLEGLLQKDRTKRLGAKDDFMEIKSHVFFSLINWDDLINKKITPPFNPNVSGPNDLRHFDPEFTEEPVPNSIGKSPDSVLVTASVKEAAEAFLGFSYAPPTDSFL
Description: Residual activity of SGK1 at 1 uM by microplate scintillation counting.

For assay [6], the target named is Dual specificity protein kinase CLK1 (Homo sapiens) (UniProt P49759). Description: Residual activity of CLK1 at 1 uM by microplate scintillation counting.
Assay [7] deals with SRSF protein kinase 1 (Homo sapiens) (UniProt Q96SB4). Description: Residual activity of SRPK1 at 1 uM by microplate scintillation counting.
The target of assay [8] is T2, Dual specificity protein kinase TTK (Homo sapiens) (UniProt P33981).
T2 sequence (whole entry): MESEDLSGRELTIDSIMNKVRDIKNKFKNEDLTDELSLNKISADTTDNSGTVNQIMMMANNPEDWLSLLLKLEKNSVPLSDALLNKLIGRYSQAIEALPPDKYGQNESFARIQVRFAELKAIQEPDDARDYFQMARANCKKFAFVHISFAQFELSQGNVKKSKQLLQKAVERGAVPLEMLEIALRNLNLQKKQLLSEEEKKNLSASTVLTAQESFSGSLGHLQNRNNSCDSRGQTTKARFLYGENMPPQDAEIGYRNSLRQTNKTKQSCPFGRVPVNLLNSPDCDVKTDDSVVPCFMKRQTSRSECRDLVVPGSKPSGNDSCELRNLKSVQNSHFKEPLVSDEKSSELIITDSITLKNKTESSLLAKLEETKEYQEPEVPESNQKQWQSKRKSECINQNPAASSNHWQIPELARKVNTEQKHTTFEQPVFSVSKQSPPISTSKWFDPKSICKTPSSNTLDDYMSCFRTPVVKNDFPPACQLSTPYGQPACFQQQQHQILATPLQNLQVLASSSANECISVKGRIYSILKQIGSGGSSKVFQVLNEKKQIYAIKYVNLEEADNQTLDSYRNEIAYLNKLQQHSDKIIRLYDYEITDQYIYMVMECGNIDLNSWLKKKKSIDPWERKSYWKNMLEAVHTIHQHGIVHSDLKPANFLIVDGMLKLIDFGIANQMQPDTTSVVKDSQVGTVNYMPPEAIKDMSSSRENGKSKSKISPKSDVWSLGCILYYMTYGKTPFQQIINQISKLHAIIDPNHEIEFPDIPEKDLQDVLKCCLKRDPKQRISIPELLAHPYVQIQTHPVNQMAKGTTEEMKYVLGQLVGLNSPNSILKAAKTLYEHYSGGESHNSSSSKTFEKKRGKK
Description: Residual activity of TTK at 1 uM by microplate scintillation counting.

For assay [9], the target named is Cyclin-dependent kinase 5/CDK5 activator 1 (Homo sapiens) (UniProt Q00535+Q15078). Description: Residual activity of CDK5/p35NCK at 10 uM by microplate scintillation counting. Format: protein-complex assay.
Assay [10] concerns the target T3, Protein kinase C zeta type (Homo sapiens) (UniProt Q05513).
T3 sequence (whole entry): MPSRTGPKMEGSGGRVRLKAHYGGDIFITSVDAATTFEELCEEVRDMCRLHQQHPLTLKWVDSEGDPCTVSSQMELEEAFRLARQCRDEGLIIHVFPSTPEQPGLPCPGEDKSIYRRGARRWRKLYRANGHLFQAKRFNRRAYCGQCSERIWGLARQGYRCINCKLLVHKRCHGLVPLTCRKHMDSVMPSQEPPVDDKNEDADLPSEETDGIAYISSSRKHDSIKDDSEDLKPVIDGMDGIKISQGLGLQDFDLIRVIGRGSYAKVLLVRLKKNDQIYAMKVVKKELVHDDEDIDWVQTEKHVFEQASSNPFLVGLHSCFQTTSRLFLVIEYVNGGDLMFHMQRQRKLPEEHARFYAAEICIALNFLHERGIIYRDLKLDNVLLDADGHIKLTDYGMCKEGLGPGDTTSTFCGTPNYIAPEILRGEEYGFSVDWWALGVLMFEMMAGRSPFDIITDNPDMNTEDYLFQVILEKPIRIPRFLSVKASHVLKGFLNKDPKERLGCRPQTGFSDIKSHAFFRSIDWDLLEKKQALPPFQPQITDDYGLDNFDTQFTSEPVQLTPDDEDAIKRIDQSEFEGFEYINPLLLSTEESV
The assay is described as follows: Residual activity of PKCzeta at 0.1 uM by microplate scintillation counting.

Sequence of Serine/threonine-protein kinase Chk2 (Homo sapiens) (O96017 whole entry): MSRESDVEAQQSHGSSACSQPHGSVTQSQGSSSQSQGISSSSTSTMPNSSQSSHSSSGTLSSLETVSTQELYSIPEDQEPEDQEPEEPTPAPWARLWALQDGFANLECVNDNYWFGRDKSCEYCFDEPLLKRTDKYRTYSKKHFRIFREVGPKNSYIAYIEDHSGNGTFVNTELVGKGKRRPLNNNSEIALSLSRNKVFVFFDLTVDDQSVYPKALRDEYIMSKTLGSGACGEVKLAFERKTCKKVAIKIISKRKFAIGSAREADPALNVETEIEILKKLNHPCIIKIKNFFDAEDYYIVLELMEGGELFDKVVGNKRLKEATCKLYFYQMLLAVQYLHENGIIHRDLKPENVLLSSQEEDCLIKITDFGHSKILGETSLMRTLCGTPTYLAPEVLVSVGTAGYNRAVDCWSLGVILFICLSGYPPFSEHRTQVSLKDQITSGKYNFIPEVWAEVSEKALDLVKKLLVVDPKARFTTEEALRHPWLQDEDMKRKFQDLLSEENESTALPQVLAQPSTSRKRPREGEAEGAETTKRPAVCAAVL
Sequence of Leukocyte tyrosine kinase receptor (Homo sapiens) (P29376 whole entry): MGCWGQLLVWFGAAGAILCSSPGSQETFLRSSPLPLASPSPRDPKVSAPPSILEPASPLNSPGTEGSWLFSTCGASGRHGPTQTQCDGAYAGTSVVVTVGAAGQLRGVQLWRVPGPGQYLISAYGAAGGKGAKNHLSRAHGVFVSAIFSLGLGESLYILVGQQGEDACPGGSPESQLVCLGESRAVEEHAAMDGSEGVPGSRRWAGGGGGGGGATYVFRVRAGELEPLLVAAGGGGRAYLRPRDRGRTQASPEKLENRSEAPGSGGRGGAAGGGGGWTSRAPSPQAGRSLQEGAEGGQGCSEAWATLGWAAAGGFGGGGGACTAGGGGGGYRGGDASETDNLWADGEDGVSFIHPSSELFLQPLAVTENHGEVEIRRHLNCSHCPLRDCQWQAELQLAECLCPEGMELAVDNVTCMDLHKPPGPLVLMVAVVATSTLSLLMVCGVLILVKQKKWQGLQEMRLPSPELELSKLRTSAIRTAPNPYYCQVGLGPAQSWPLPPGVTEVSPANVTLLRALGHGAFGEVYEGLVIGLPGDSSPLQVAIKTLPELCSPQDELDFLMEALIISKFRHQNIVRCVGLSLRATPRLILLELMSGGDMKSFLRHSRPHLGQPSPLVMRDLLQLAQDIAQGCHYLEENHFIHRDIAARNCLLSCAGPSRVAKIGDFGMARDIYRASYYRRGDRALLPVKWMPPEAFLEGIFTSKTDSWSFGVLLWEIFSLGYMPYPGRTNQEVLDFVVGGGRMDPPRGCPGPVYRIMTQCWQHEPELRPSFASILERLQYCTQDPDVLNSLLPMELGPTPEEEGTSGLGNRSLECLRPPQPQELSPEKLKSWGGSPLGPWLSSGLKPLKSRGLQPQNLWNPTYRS
Sequence of Serine/threonine-protein kinase PAK 6 (Homo sapiens) (Q9NQU5 whole entry, looked up): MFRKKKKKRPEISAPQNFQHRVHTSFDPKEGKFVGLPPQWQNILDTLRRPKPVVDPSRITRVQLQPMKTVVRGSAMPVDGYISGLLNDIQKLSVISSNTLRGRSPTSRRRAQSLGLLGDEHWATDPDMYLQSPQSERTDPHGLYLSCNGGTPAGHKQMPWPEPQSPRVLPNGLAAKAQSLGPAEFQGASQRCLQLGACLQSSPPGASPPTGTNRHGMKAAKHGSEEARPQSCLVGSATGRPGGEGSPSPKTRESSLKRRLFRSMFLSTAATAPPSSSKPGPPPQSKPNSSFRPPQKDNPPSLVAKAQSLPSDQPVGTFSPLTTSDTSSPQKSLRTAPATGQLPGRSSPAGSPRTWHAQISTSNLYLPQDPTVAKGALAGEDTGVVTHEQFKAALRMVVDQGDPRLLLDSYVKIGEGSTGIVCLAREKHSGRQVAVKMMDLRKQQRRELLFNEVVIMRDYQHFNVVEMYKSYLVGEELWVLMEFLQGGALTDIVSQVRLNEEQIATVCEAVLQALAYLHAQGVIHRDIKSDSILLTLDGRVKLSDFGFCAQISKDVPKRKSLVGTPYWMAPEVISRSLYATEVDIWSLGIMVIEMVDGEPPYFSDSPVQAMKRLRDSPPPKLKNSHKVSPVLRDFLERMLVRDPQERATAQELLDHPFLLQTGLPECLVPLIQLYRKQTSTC
Sequence of Cyclin-dependent kinase 5/CDK5 activator 1 (Homo sapiens) (Q00535 whole entry): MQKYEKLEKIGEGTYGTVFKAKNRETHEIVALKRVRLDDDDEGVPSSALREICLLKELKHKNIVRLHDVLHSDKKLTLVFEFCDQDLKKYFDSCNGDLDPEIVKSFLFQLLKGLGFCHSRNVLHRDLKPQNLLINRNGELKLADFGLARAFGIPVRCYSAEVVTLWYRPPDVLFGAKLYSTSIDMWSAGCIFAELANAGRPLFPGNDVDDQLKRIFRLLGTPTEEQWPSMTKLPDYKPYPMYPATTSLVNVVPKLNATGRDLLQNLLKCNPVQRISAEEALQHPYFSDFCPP
Sequence of Cyclin-dependent kinase 5/CDK5 activator 1 (Homo sapiens) (Q15078 99-307 partner limits assumed): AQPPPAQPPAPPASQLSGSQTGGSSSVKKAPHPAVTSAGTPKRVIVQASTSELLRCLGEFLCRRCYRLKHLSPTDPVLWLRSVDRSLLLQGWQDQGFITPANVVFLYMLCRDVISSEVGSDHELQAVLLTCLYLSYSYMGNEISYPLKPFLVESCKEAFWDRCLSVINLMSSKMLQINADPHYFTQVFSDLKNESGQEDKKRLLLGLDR
Sequence of Protein-tyrosine kinase 6 (Homo sapiens) (Q13882 whole entry, looked up): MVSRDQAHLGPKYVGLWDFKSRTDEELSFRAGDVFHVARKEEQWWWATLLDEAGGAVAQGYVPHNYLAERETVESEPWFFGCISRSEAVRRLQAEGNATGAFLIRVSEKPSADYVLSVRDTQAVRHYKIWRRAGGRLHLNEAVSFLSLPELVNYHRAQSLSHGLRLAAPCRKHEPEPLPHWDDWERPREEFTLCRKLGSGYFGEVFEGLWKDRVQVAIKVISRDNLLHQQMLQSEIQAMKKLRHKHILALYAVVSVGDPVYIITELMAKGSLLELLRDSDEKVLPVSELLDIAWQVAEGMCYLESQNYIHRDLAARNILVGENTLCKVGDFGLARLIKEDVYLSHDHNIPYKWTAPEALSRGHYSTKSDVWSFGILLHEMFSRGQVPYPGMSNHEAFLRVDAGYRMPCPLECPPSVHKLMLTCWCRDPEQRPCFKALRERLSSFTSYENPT
Sequence of SRSF protein kinase 1 (Homo sapiens) (Q96SB4 whole entry): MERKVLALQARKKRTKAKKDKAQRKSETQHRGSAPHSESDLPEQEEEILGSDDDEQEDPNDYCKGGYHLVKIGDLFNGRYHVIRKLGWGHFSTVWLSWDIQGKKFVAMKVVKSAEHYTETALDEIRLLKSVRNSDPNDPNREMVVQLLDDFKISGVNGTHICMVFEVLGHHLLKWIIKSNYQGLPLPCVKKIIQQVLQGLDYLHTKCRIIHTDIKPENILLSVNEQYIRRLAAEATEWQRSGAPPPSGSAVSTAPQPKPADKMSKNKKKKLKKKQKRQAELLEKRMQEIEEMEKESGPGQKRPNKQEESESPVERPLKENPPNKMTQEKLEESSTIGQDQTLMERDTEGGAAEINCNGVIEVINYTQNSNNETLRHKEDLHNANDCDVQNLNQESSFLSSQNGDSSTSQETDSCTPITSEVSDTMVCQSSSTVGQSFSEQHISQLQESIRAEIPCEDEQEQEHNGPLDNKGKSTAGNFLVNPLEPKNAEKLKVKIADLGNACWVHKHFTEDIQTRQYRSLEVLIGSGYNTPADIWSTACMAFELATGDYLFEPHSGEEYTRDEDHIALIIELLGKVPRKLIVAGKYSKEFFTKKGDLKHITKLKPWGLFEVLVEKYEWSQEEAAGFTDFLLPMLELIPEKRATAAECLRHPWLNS
Sequence of Dual specificity protein kinase CLK1 (Homo sapiens) (P49759 whole entry, looked up): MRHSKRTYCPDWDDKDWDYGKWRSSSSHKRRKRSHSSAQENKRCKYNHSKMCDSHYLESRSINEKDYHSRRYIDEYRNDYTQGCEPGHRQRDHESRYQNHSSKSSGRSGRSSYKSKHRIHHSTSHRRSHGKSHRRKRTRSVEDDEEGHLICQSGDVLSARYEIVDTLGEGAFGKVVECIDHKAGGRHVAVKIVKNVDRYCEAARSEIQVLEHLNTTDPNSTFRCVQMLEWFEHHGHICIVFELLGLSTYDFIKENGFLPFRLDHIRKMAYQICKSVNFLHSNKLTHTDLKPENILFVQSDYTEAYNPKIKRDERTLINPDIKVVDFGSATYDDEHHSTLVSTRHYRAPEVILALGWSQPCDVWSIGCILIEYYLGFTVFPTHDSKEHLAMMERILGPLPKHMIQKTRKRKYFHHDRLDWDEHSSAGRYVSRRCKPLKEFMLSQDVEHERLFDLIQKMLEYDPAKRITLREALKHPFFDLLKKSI

As to `COc1cc2c(Oc3ccc(-c4nc5ccccc5s4)cc3)ncnc2cc1OCCCN1CCCC1`, the residual activity turned out to be 109% in assay [1]; 8% in assay [2]; 143% in assay [3]; 75% in assay [4]; 99% in assay [5]; 107% in assay [6]. The residual activity turned out to be 100% in assay [7], 85% in [8], 98% in [9] and 107% in assay [10].

`COc1cc2c(Oc3ccc(-c4nc5ccccc5s4)cc3F)ncnc2cc1OCCCN1CCN(C)CC1`: the residual activity in assay [1] stood at 90%; in assay [2], 4%; in assay [3], 127%; in assay [4], 51%; in [5], 96%; in assay [6] it was 104%. For the same molecule, the residual activity was 104% in assay [7], 105% in assay [8], 86% in [9] and 97% in assay [10].

Consider `COc1cc2c(Oc3ccc(-c4nc5ccccc5s4)cc3)ncnc2cc1OCCCN1CCN(C)CC1`, for which the residual activity was found to be 74% in assay [1]; 7% in assay [2]; 123% in [3]; 54% in [4]; 86% in assay [5]; 99% in assay [6]. The residual activity in [7] came out at 103%; in assay [8] it was 101%; in assay [9], 96%; in assay [10] it was 85%.
